# Laboratory results from the OligoGym collection.
# Only the 19 paired bases of each siRNA are shown; overhangs and chemistry are not given here.
# How the values were obtained:
# [1] = biological target: ICAM1; assay: five studies, different assays; conditions: siRNA
# [2] = biological target: LMNA; assay: five studies, different assays; conditions: siRNA
# Note: test concentration or dose not given here.
Substance,target inhibition [1] [%],target inhibition [2] [%]
sense CCAGGUCCACCUGGCACUG / antisense CAGUGCCAGGUGGACCUGG,21,–
sense UGUGUGUGUGUGUAUGUGU / antisense ACACAUACACACACACACA,7,–
sense CGGAUGCCAGCUUGGGCAC / antisense GUGCCCAAGCUGGCAUCCG,24,–
sense ACGGUGCUGGUGAGGAGAG / antisense CUCUCCUCACCAGCACCGU,-20,–
sense CCAUGAAACCGAACACACA / antisense UGUGUGUUCGGUUUCAUGG,59,–
sense GGUCCUAGAGGUGGACACG / antisense CGUGUCCACCUCUAGGACC,10,–
sense GAUUCUGACGAAGCCAGAG / antisense CUCUGGCUUCGUCAGAAUC,-10,–
sense GCUCAAGUGUCUAAAGGAU / antisense AUCCUUUAGACACUUGAGC,40,–
sense AGUGAUCCUCCCACCUCAG / antisense CUGAGGUGGGAGGAUCACU,45,–
sense UCCAUAGACAUGUGUAGCA / antisense UGCUACACAUGUCUAUGGA,63,–
sense CCUCUUGGCAGCCAGUGGG / antisense CCCACUGGCUGCCAAGAGG,18,–
sense GCCACACUGAACAGAGUGG / antisense CCACUCUGUUCAGUGUGGC,21,–
sense GUCAUCAUCACUGUGGUAG / antisense CUACCACAGUGAUGAUGAC,35,–
sense CCAACCAAUGUGCUAUUCA / antisense UGAAUAGCACAUUGGUUGG,7,–
sense CUCAGCGGUCAUGUCUGGA / antisense UCCAGACAUGACCGCUGAG,33,–
sense GGGCAUUGUCCUCAGUCAG / antisense CUGACUGAGGACAAUGCCC,62,–
sense GACGUGUGCAGUAAUACUG / antisense CAGUAUUACUGCACACGUC,30,–
sense UCACAGGUUCAGAGAUUAC / antisense GUAAUCUCUGAACCUGUGA,34,–
sense UCAGAGUUGCAACCUCAGC / antisense GCUGAGGUUGCAACUCUGA,1,–
sense GGAGCUGGAGAAGACUUAU / antisense AUAAGUCUUCUCCAGCUCC,–,95
sense UAACCCUUUGGUUUUUUUC / antisense GAAAAAAACCAAAGGGUUA,–,52
sense UGAACCUAUCCCGGGACAG / antisense CUGUCCCGGGAUAGGUUCA,20,–

Substance,target inhibition [1] [%],target inhibition [2] [%]
sense AUAAGAAGGAGCUGGAGAA / antisense UUCUCCAGCUCCUUCUUAU,–,96
sense AAGGAGUUGCUCCUGCCUG / antisense CAGGCAGGAGCAACUCCUU,-15,–
sense AACACACAAGCCACGCCUC / antisense GAGGCGUGGCUUGUGUGUU,1,–
sense UGCAGCAGCAGCUGGACGA / antisense UCGUCCAGCUGCUGCUGCA,–,92
sense CCAUGGUACCUGCACACCU / antisense AGGUGUGCAGGUACCAUGG,75,–
sense AGUCGACGCUGAGCUCCUC / antisense GAGGAGCUCAGCGUCGACU,0,–
sense ACCUCUGUCGGGCCAGGAG / antisense CUCCUGGCCCGACAGAGGU,5,–
sense AGAAGGAGCUGGAGAAGAC / antisense GUCUUCUCCAGCUCCUUCU,–,96
sense AGCGCAAACUGGAGUCCAC / antisense GUGGACUCCAGUUUGCGCU,–,98
sense AGCUGGAGAAGACUUAUUC / antisense GAAUAAGUCUUCUCCAGCU,–,96
sense CUGGACUUCCAGAAGAACA / antisense UGUUCUUCUGGAAGUCCAG,–,98
sense CAGUAUAAGAAGGAGCUGG / antisense CCAGCUCCUUCUUAUACUG,–,95
sense GAAGGAGCUGGAGAAGACU / antisense AGUCUUCUCCAGCUCCUUC,–,93
sense UCUGGUCACCCGCUCCUAC / antisense GUAGGAGCGGGUGACCAGA,–,83
sense GCUUCGAGACCUGGAGGAC / antisense GUCCUCCAGGUCUCGAAGC,–,96
sense UAAGAAGGAGCUGGAGAAG / antisense CUUCUCCAGCUCCUUCUUA,–,67
sense GCUGGCCCUGGACAUGGAG / antisense CUCCAUGUCCAGGGCCAGC,–,79
sense UAUUGGGUAUGCUGAGGCC / antisense GGCCUCAGCAUACCCAAUA,43,–
sense UUGCACUAUUGCAGCUCCA / antisense UGGAGCUGCAAUAGUGCAA,5,–
sense GCCUGCGUACGGCUCUCAU / antisense AUGAGAGCCGUACGCAGGC,–,97
sense GGUGGUGACGAUCUGGGCU / antisense AGCCCAGAUCGUCACCACC,–,92
sense GUAUAAGAAGGAGCUGGAG / antisense CUCCAGCUCCUUCUUAUAC,–,96

Substance,target inhibition [1] [%],target inhibition [2] [%]
sense AAGAAGGAGCUGGAGAAGA / antisense UCUUCUCCAGCUCCUUCUU,–,87
sense GCUGGACAAUGCCAGGCAG / antisense CUGCCUGGCAUUGUCCAGC,–,84
sense CAUUGGCCAACCUGCCUUU / antisense AAAGGCAGGUUGGCCAAUG,28,–
sense GAGCUGGAGAAGACUUAUU / antisense AAUAAGUCUUCUCCAGCUC,–,96
sense CUGCUCUCAGUGAGAAGCG / antisense CGCUUCUCACUGAGAGCAG,–,88
sense GGAGGACCUGCAGGAGCUC / antisense GAGCUCCUGCAGGUCCUCC,–,83
sense GGUCUCUGGCCUCACGGAG / antisense CUCCGUGAGGCCAGAGACC,7,–
sense GGAUGCCAGCUUGGGCACU / antisense AGUGCCCAAGCUGGCAUCC,40,–
sense GGGACAGGGCCUCUUCCUC / antisense GAGGAAGAGGCCCUGUCCC,52,–
sense GUGGCCAUGCGCAAGCUGG / antisense CCAGCUUGCGCAUGGCCAC,–,74
sense GGAGAAGACUUAUUCUGCC / antisense GGCAGAAUAAGUCUUCUCC,–,95
sense UAGGCUCACAACACCACAC / antisense GUGUGGUGUUGUGAGCCUA,41,–
sense CCUACCAGCUCCAGACCUU / antisense AAGGUCUGGAGCUGGUAGG,45,–
sense CUGGAGAAGACUUAUUCUG / antisense CAGAAUAAGUCUUCUCCAG,–,98
sense AGGAGCUGGAGAAGACUUA / antisense UAAGUCUUCUCCAGCUCCU,–,98
sense GGCACAGAACACCUGGGGC / antisense GCCCCAGGUGUUCUGUGCC,–,86
sense CCAGACUUCCUUUGUGUUA / antisense UAACACAAAGGAAGUCUGG,48,–
sense AGCUCCUGCUGAAGGCCAC / antisense GUGGCCUUCAGCAGGAGCU,10,–
sense GGACCUGCAGGAGCUCAAU / antisense AUUGAGCUCCUGCAGGUCC,–,45
sense CCCGCUCCUACCUCCUGGG / antisense CCCAGGAGGUAGGAGCGGG,–,71
